Tests used:
Type in all cases: cell-based
Raw 264.7 cells = assay: NO production inhibition, LPS-treated cells, NO quantification kit; settings: positive control, 200 ppm
Experimental: In order to verify the skin soothing and anti-inflammatory effects of the bee pollen exosome raw material prepared in Preparation Example 2, the NO production inhibitory effect was measured as follows, and compared with those of the pollen extract raw material, the bee pollen extract raw material, and the plant-derived exosome raw material which are the control groups.
In detail, the NO production inhibitory effects of the above samples were measured using Raw 264.7 cells. As a positive control, 20 mg/ml L-NMMA1 (NOS inhibitor) was used, and the samples were diluted to 0.01% and 0.1% concentrations (v/v %) and treated for 30 minutes, followed by treatment with 1 μg/ml LPS and culturing for 24 hours. Then, the ability to inhibit NO production was evaluated using a NO quantification kit as follows. All results were expressed as mean±standard deviation (SD) after three or more independent experiments.
NO production inhibitory ability (%)=(1−([…] NO production amount with sample addition))/(NO production amount without sample addition)×100

B16f10 melanocytes = assay: Melanin production inhibition in melanocytes; settings: Mus musculus, B16-F10, positive control, read-out: inhibition of melanin synthesis
Experimental: In order to verify the whitening effect of the bee pollen exosome raw material prepared in Preparation Example 2, the melanin production-inhibitory effect was measured as follows.
In detail, the whitening efficacy of the bee pollen exosome raw material was evaluated by measuring the degree of reduction in the amount of melanin pigment present in melanocytes. The bee pollen exosome raw material was diluted to 0.01% and 0.1% concentrations (v/v %), and B16f10 melanocytes were treated therewith, and cultured for 72 hours, and melanin was quantified to evaluate the whitening efficacy. The melanin content was calculated based on the total protein amount, and the melanin production inhibition rate was calculated as %, based on a DMSO control group. 200 ppm of arbutin was treated as a positive control group.
In detail, the bee pollen extract raw material was prepared by grinding the same amount of bee pollens in the same manner as in preparing the bee pollen exosome, and by extracting using a general low-temperature extraction method of using purified water for 24 hours to 72 hours under the same temperature conditions (4° C. to 25° C.). […]

[1] = tested on: human dermal fibroblast (HDF) cells; assay: Collagen synthesis efficacy (procollagen type I C-peptide EIA); settings: positive control, 10 ng/ml, compared to untreated group
Experimental: To verify the collagen synthesis effect of the bee pollen exosome raw material prepared in Preparation Example 2, measurements were performed as follows.
In detail, the collagen synthesis effect was evaluated using human dermal fibroblast (HDF) cells. After pre-treating the cells with the bee pollen exosome raw material sample for 48 hours, collagen synthesis efficacy was measured using a human procollagen type I C-peptide (PIP) EIA kit. The collagen synthesis efficacy of the sample was determined by calculating the increased value in percentage (%), as compared to the untreated control group, and the results are shown in a table. 10 ng/ml TGF-b was used as a positive control group.
All of the above samples were diluted to 0.01% and 0.1% concentrations (v/v %) and evaluated.

## CNC(=N)NCCC[C@H](N)C(=O)O [L-NMMA1]
Raw 264.7 cells
  NO production inhibition ability: 59.17%

## OC[C@H]1O[C@@H](Oc2ccc(O)cc2)[C@H](O)[C@@H](O)[C@@H]1O [arbutin]
B16f10 melanocytes
  inhibition at 200 ppm: 38.1%

## TGF-b: 10 ng/ml TGF-b used as positive control for collagen synthesis
[1]
  collagen synthesis increase: 29.87%

— patent publication US20240173249A1, “COSMETIC COMPOSITION CONTAINING BEE POLLEN EXOSOME” (LG HOUSEHOLD & HEALTH CARE LTD., priority 2022, published 2024)
